Experimental data as given in article PMC8395767, “Worsening of the Toxic Effects of (±)Cis-4,4′-DMAR Following Its Co-Administration with (±)Trans-4,4′-DMAR: Neuro-Behavioural, Physiological, Immunohistochemical and Metabolic Studies in Mice” (International Journal of Molecular Sciences, 2021).
“And” between values parts separate entries of the source, which are not always exact repeats. Equal entries are not always repeated. Marks after values point to notes of the source that are not given here.

What was measured:
[1] = system: mice; experiment: Core temperature (rectal probe), hyperthermia; assay type: in vivo
Description: The effects of (±)cis-4,4′-DMAR, (±)trans-4,4′-DMAR and their co-administration were investigated by a protocol widely used in studies of “safety pharmacology” for the preclinical characterization of new molecules in rodents. This protocol includes a series of observational behavioural tests carried out in a consecutive manner that monitor the animal responses up to 5 h after compound injections. In the present study, we reported the observation of physiological (sweating, salivation, core temperature) and neuro-behavioural (detection of psychomotor agitation, spontaneous and stimulated aggressiveness, convulsions) changes occurring in mice after injection of (±)cis-4,4′-DMAR, (±)trans-4,4′-DMAR and their co-administration. Before pharmacological treatment the mouse was placed on a square plate (30 cm× 30 cm) raised from the ground (20 cm) and left free to move on the plate for 10 min (habituation period). The animal was then injected with the vehicle, substances alone ((±)cis-4,4′-DMAR or (±)trans-4,4′-DMAR) or in cis + trans co-administration and placed on the plate. From this moment, the recording time of the physiological and neuro-behavioural responses started, and these were detected in 5-min sessions.
After the first 5 min, the animal was removed from the plate; the body core temperature was then measured, and the aggression tests were performed. The 5-min observation period was repeated at 15–30–60–90–120–180–240–300. Psychomotor agitation in the mouse was not simply related to an increase in spontaneous locomotion itself, but by an “unusual hyperactivity” which was characterised by rapid and sudden horizontal displacements in all directions, sustained turning behaviour, involuntary falls from the high plate during the evaluation of the tests, stereotyped movements and rearing activity. Mouse sweating and salivation were reported only if present or not. The core temperature was determined using a probe (1 mm diameter) that was gently inserted after lubrication with liquid Vaseline into the rectum of the mouse (to about 2 cm) and left in position until the temperature stabilised (about 10 s). The probe was connected to a digital thermometer. Spontaneous aggressive response was measured based on the number of times a mouse bit a grey cloth put in front of its snout. During the test, each mouse was free to move within the cage. In the case of stimulated aggressiveness, each mouse was manually restrained and held in a supine position following which an object was brought near the mouth. For both spontaneous and stimulated aggressive behaviour tests, a grey cloth was placed in front of the nose of each mouse 10 consecutive times (score 0/10 not aggressive, score 10/10 very aggressive). Convulsions were defined as a loss of righting reflexes for at least 5 s, combined with the presence of body tremors and clonic or tonic limb movements. Deaths caused by 4-4’-DMAR injection occurring during the observation period (5 h) were also reported as frequency (%) and time of death (min). Experiments were conducted inside the LARP (Centralised Preclinical Research Laboratory, University of Ferrara, Ferrara, Italy) in a thermo-stated (temperature 20–22 °C, humidity about 45–55%) and light controlled (about 150 lux) room, in which there was a background noise of about 40 ± 4 dB. The experiments, conducted in blind by trained observers working together in pairs, were videotaped and eventually analysed off-line by a different trained operator. The experiments were performed between 8:30 a.m. and 2:00 p.m.
(§1) Sweating and salivation were expressed as frequency (e.g., % of animals that developed symptoms); psychomotor agitation was expressed as frequency (% of animals) and duration (total time in mins). Core temperature values were expressed as the difference between control temperature (before injection) and temperature following drug administration (Δ°C). […]

[2] = system: NF-kB; experiment: Immunohistochemistry, frontal cortex: NF-kB; assay type: in vivo, mice
Excerpt: (§2) Following the acute death or the sacrifice of the animals (after 5-h observation period by dislocation of the spine), brains were taken. These were fixed in 4% buffered formalin and then sampled and incorporated into the paraffin (Leica ASP300 processor, Histoline TEC2900 incorporator; Leica Microsystems Srl, Buccinasco, Milano, Italy). Subsequently, the cut (performed with the Leica HistoCore autocut microtome; Leica Microsystems Srl, Buccinasco, Milano, Italy) was designed to create sections with a thickness of 5 µm for each sample.
(§3) On 5-µm-thick paraffined […] sections, we evaluated the expression of a panel of markers: heat shock proteins (HSP27, HSP70, HSP90), SMAC/DIABLO, NF-kB, iNOS, NOX-2, NT, 8-OHDG.
(§4) We used a detection system composed of a biotinylated secondary antibody and HRP-conjugated streptavidin (4plus HRP Universal Detection, Biocare Medical). […] In the pictures (sections of the frontal cortex; Figure 3, Figure 4 and Figure 5) to evaluate the variation in the expression of markers (Smac, NOX2, iNOS, 8-OHdG, NT, HSP27, HSP70, HSP90) following treatments, the change in intensity of brown colour (staining of the immunohistochemical technique) in the control and treated tissue was measured. Quantification of Smac, NOX2, iNOS, 8-OHdG, NT, HSP27, HSP70 and HSP90 positive-stained areas was performed by the ImageJ software (imagej.nih.gov/ij/ Accessed date 12 May 2020). […]

[3] = system: Smac/DIABLO; experiment: Immunohistochemistry, frontal cortex: Smac/DIABLO; assay type: in vivo, mice
Excerpt: as §2, §3
We used a detection system composed of a biotinylated secondary antibody and HRP-conjugated streptavidin (4plus HRP Universal Detection, Biocare Medical). 3′-,3Diaminobenzidine (DAB) and H2O2 (Betazoid DAB Chromogen Kit, Biocare Medical, Concord, CA, USA) were used as chromogen/substrate. […] In the pictures (sections of the frontal cortex; Figure 3, Figure 4 and Figure 5) to evaluate the variation in the expression of markers (Smac, NOX2, iNOS, 8-OHdG, NT, HSP27, HSP70, HSP90) following treatments, the change in intensity of brown colour (staining of the immunohistochemical technique) in the control and treated tissue was measured. Quantification of Smac, NOX2, iNOS, 8-OHdG, NT, HSP27, HSP70 and HSP90 positive-stained areas was performed by the ImageJ software (imagej.nih.gov/ij/ Accessed date 12 May 2020). […] Positivity was expressed as an extension of the stained analysed area.
as §1, with “(Δ°C). Aggressiveness was expressed as frequency (% of animals which become aggressive) and score (number of bites).” for “(Δ°C).”

[4] = system: HSP90; experiment: Immunohistochemistry, frontal cortex: HSP90; assay type: in vivo, mice; conditions: vs control
Excerpt: as §2, §3, §4

[5] = 10 mg/kg i.p., n=4 mice (animals of the urine excretion study)

Structure (SMILES)	Hyperthermia Variation (Δ°C) ([1]; 0.1 mg/kg i.p., n=6 mice)	Hyperthermia Variation (Δ°C) ([1]; 1 mg/kg i.p., n=6 mice)	Hyperthermia Variation (Δ°C) ([1]; 3 mg/kg i.p., n=6 mice)	Hyperthermia Variation (Δ°C) [1, 5]	Hyperthermia Variation (Δ°C) ([1]; 10 mg/kg i.p., n=6 mice)	Hyperthermia Latency ([1]; 30 mg/kg i.p., n=6 mice) [min]	Hyperthermia Variation (Δ°C) ([1]; 30 mg/kg i.p., n=6 mice)	Hyperthermia Variation (Δ°C) ([1]; 30 mg/kg i.p., n=6 mice, listed as (±)cis-4,4′-DMAR)	Hyperthermia Latency ([1]; 60 mg/kg i.p., n=6 mice) [min]	Hyperthermia Latency (min) ([1]; 60 mg/kg i.p., n=6 mice)	Hyperthermia Variation (Δ°C) ([1]; 60 mg/kg i.p., n=6 mice)	Hyperthermia Variation (Δ°C) ([1]; 60 mg/kg i.p., n=6 mice, listed as (±)cis-4,4′-DMAR)	Hyperthermia ([1]; lower doses 0.1–10 mg/kg i.p., mice)	Immunoreactivity of NF-kB in the frontal cortex ([2]; 10, 30 and 60 mg/kg, vs control)	Immunoreactivity of Smac/DIABLO in the frontal cortex ([3]; 30 and 60 mg/kg, vs control)	Immunoreactivity of Smac/DIABLO in the frontal cortex ([3]; 30 and 60 mg/kg, vs control, listed as (±)cis)	Immunoreactivity of HSP90 in the frontal cortex ([4]; 10 and 30 mg/kg)	Immunoreactivity of NF-kB in the frontal cortex ([2]; 30 mg/kg alone)	Immunoreactivity of Smac/DIABLO in the frontal cortex ([3]; 30 mg/kg alone)	Expression of HSP90 in the frontal cortex ([4]; 30 mg/kg alone)
Cc1ccc(C2OC(N)=NC2C)cc1 (stereo not drawn) [cis-4,4’-DMAR, 4-methyl-5-(4-methylphenyl)-4,5-dihydrooxazol-2-amine]	−0.18 ± 0.14 Δ°C	−0.22 ± 0.17 Δ°C	−0.34 ± 0.22 Δ°C	−0.21 ± 0.15 Δ°C	−0.41 ± 0.13 Δ°C	25 ± 0.25	1.52 ± 0.11 ^c Δ°C	1.52 ± 0.11 Δ°C	7.12 ± 0.23	7.12 ± 0.23 ^d min	2.22 ± 0.12 ^c Δ°C and 2.22 ± 0.12 Δ°C	2.22 ± 0.12 Δ°C	ineffective	increased	increased	significant increase	reduced			
Cc1ccc(C2OC(N)=NC2C)cc1 (stereo not drawn) [trans-4,4’-DMAR, 4-methyl-5-(4-methylphenyl)-4,5-dihydrooxazol-2-amine]				−0.32 ± 0.1 Δ°C			−0.37 ± 0.13 Δ°C				−0.35 ± 0.16 Δ°C							ineffective	ineffective	reduced
